One test has as its target T1, HDAC11 (Homo sapiens, UniProt Q96DB2).
T1 sequence (Q96DB2 1-347): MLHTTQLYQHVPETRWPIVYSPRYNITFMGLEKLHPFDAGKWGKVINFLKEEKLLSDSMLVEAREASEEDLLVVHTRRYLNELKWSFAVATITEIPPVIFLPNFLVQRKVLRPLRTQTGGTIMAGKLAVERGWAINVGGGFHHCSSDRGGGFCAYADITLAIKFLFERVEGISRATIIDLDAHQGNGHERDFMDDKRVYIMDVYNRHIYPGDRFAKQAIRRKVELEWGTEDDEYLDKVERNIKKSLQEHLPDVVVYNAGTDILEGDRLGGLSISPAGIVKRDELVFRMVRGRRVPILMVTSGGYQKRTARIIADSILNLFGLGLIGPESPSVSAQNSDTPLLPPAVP
As to the kind of experiment: HDAC inhibition assay with preincubation, HDAC11. The format is biochemical. Particulars: preincubation 0, 0.5, 1 or 2 h at 37 °C.

Test [1] addresses T2, HDAC6 (Homo sapiens, UniProt Q9UBN7).
T2 sequence (Q9UBN7 1-1215): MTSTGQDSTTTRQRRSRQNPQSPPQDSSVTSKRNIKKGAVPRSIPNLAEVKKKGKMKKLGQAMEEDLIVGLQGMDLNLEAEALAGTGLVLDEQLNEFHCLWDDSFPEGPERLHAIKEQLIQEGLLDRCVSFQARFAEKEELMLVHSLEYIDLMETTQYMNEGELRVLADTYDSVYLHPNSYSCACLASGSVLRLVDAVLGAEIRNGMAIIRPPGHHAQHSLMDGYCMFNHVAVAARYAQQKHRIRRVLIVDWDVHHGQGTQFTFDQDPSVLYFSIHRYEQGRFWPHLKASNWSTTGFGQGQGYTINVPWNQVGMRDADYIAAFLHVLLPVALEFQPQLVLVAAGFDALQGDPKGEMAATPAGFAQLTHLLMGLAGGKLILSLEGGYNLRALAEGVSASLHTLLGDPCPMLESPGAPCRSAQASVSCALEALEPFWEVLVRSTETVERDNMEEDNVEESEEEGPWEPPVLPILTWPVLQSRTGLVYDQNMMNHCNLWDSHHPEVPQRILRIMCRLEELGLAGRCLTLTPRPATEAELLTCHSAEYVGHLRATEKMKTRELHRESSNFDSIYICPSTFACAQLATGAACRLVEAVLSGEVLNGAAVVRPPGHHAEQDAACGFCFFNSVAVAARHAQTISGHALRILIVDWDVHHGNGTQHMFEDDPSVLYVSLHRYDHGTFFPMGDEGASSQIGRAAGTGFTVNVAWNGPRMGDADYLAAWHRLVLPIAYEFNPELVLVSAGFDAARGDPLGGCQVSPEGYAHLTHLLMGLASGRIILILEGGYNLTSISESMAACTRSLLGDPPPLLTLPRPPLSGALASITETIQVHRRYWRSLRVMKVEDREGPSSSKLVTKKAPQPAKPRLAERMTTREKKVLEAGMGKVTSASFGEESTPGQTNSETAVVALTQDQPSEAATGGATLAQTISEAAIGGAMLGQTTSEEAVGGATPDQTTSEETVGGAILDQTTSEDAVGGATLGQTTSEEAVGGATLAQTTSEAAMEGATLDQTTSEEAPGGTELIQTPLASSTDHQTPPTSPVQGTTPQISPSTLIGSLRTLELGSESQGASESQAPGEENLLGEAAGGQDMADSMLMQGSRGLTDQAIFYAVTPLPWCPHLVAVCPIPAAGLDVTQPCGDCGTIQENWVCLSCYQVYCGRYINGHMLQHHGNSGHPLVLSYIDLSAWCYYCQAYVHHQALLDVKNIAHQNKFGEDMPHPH
As to the kind of experiment: HDAC inhibition assay with preincubation, HDAC6. The format is biochemical. Conditions: preincubation 0, 0.5, 1 or 2 h at 37 °C.

Test [2] deals with lysine acetylation (α-tubulin, H3K18, H3K27, and SMC3) in HEK293T cells. As to the kind of experiment: Protein acetylation assay. The format is cell-based, human. Conditions: 5 h, 1 or 10 μM, Western blot. On the technique in general: A western blot detects proteins with antibodies after separation by electrophoresis.
Test [3] deals with T2, HDAC6. As to the kind of experiment: HDAC inhibition assay. The format is biochemical. Particulars: for selectivity for HDAC6 over HDAC8 (between the two enzymes): from Ki values.
For test [4], the target named is T3, HDAC8 (Homo sapiens, UniProt Q9BY41).
T3 sequence (Q9BY41 1-377): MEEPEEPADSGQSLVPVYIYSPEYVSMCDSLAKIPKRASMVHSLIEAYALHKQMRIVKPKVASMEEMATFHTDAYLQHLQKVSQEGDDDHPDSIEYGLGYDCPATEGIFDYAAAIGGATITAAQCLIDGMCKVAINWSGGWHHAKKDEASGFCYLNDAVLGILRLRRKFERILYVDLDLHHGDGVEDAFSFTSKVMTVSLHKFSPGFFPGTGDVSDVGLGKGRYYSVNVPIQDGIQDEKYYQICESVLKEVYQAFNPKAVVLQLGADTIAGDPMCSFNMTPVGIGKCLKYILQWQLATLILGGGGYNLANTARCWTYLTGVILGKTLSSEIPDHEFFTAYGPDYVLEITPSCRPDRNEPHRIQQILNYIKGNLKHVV
Put plainly: Cellular thermal shift assay. Particulars: HEK293T cells, 10 µM, 2 h. The format is cell-based.

Test [5] deals with T3, HDAC8. As to the kind of experiment: HDAC inhibition assay. The class given is biochemical.

This is an account of results in paper PMC11134391 (JACS Au, 2024).

For `Cc1c(OS(=O)(=O)Oc2ccc(Oc3ccccc3)cc2)cccc1C(=O)NO` [D21], the “change of IC50 upon preincubation with HDAC11” value at HDAC11 is “did not observe any decrease in IC50 value upon preincubation”.
`O=C(NO)c1cc(F)cc(OS(=O)(=O)Oc2ccccc2)c1` [C1]: on HDAC6 [1], the “change of IC50 upon preincubation with HDAC6” value is on record as “did not observe any decrease in IC50 value upon preincubation”. Also, the “acetylation of α-tubulin compared to DMSO control” value in test [2] is “significant upregulation”. Further, at HDAC6 [3], the “selectivity for HDAC6 over HDAC8 (between the two enzymes)” value amounted to 20 fold.
Take `O=C(NO)c1cncc(OS(=O)(=O)Oc2ccc3ccccc3c2)c1` [E24]: the “change of IC50 upon preincubation with HDAC6” value on HDAC6 [1] is given as “did not observe any decrease in IC50 value upon preincubation”. In addition, in test [2], the “acetylation of α-tubulin compared to DMSO control” value is recorded as “significant upregulation”. In addition, on HDAC8 [4], the “thermal shift of HDAC8 relative to DMSO control” value was “no shift”. On HDAC6 [3], the Ki (usually a dissociation constant, usually derived from enzyme kinetics or from competition with a known ligand) came out at 14 nM and the “selectivity for HDAC6 over HDAC8 (between the two enzymes)” value is roughly 20 fold.
Take `COc1ccc(OS(=O)(=O)Oc2cccc(C(=O)NO)c2)cc1OC` [A17]: at HDAC8 [5], the affinity, expressed as Ki, was 22 nM.
